How the values were obtained:
Assay type in all cases: in vivo
[1] = test system: Viola tricolor; experiment: Greenhouse trial, post-emergence, visual herbicidal effect; details: alone, 3 g of a.i./ha
Method: (§1) The weed seeds were sown in pots (diameter 8 cm) with sandy loam soil and germinated under optimum conditions. The herbides were applied by the post-emergence method onto the pots with the cultures, at a spray volume of 300 I/ha. The herbicides were applied on their own and in combination. The trial was conducted in a greenhouse under optimum growth conditions. The herbicidal effects were assessed visually by comparison of untreated and treated plants. The percentages mean: 0%=no effects, 100%=the plants die off completely). The percentages are used to calculate interactions between individual treatments and combination treatment according to S. R. Colby, Weeds 15, pages 20 to 22 (1967).
(§2) The abbreviations denote: • a.i.=active ingredient • E^C=expected value according to Colby (E^C=A+B−A×B100) • Δ=difference (%) of the measured value to the expected value (%) (measured value minus expected value)
(§3) Evaluation: • measured value E is greater than E^C:→synergism (+Δ) • measured value E equals E^C:→additive effect • measured value E is smaller than E^C:→antagonism (−Δ)

[2] = test system: Avena fatua; experiment: as above; details: alone
Method: as §1, §2, §3

[3] = test system: Papaver rhoeas; experiment: as above; details: alone
Method: as §1, §2, §3

[4] = test system: Polygonum convolvulus; experiment: as above; details: Table 5-08, greenhouse, alone, 3 g of a.i./ha
Method: as §1, §2, §3

[5] = test system: Centaurea cyanis; experiment: as above; details: alone
Method: as §1, §2, §3

[6] = test system: Euphorbia heterophylla; experiment: Field trial, post-emergence, visual scoring; details: Table 5-51, field, alone, 25 g of a.i./ha
Method: (§4) The tests were conducted outdoors (plot trials, 10 m^2 per plot, 2 repetitions, spray application with 200-300 liters of water per hectare). Crops and broad-leaved weeds/weed grasses were sown under customary field conditions. In addition, a natural weed flora also appeared. Application was by the post-emergence method. The application rates of the herbicidally active compounds applied on their own or in combinations are likewise shown in the tables below. Evaluations were by visual scoring (using a 0-100% scale) after application by comparison of treated and untreated test variants.
as §2, §3

[7] = test system: Brachiaria platyphylla; experiment: Greenhouse trial, post-emergence, visual herbicidal effect
Method: as §1, §2, §3

[8] = test system: Setaria viridis; experiment: as above; details: alone
Method: as §1, §2, §3

[9] = test system: Veronica hederifolia; experiment: Field trial, post-emergence, visual scoring; details: alone, 25 g of a.i./ha
Method: as §4, §2, §3

[10] = test system: Bidens pilosa; experiment: Greenhouse trial, post-emergence, visual herbicidal effect
Method: as §1, §2, §3

[11] = test system: Echinochloa crus-galli; experiment: as above
Method: as §1, §2, §3

[12] = test system: Xanthium strumarium; experiment: as above; details: alone
Method: as §1, §2, §3

[13] = test system: Pharbitis purpurea; experiment: as above; details: alone
Method: as §1, §2, §3

[14] = test system: Digitaria sanguinalis; experiment: as above
Method: as §1, §2, §3

[15] = test system: Ambrosia artemisiifolia; experiment: as above; details: alone
Method: as §1, §2, §3

[16] = test system: Sida spinosa; experiment: Field trial, post-emergence, visual scoring; details: alone
Method: as §4, §2, §3

[17] = test system: Cassia obtusifolia; experiment: Field trial, post-emergence, visual scoring; details: alone
Method: as §4, §2, §3

[18] = test system: Portulaca oleracea; experiment: Field trial, post-emergence, visual scoring; details: Table 5-16, field, alone, 50 g of a.i./ha
Method: as §4, §2, §3

[19] = test system: Setaria viridis; experiment: Field trial, post-emergence, visual scoring; details: Table 5-23, field, alone, 9 g of a.i./ha
Method: as §4, §2, §3

Compound: Cc1c(C(=O)Nc2nnnn2C)ccc(C(F)(F)F)c1S(C)(=O)=O [A1-7]
- Activity [%] against Viola tricolor ([1]; Table 5-09, greenhouse): 50%
- Activity [%] against Avena fatua ([2]; Table 5-05, greenhouse, 3 g of a.i./ha): 0%
- Activity [%] against Avena fatua ([2]; Table 5-07, greenhouse, 3 g of a.i./ha): 0%
- Activity [%] against Papaver rhoeas ([3]; Table 5-06, greenhouse, 3 g of a.i./ha): 60%
- Activity [%] against Polygonum convolvulus [4]: 10%

Compound: Cc1c(C(=O)Nc2nnnn2C)ccc(S(C)(=O)=O)c1-n1cccn1 [A1-26]
- Activity [%] against Viola tricolor ([1]; Table 5-42, greenhouse): 50%
- Activity [%] against Centaurea cyanis ([5]; Table 5-38, greenhouse, 3 g of a.i./ha): 40%
- Activity [%] against Centaurea cyanis ([5]; Table 5-40, greenhouse, 6 g of a.i./ha): 60%
- Activity [%] against Papaver rhoeas ([3]; Table 5-39, greenhouse, 6 g of a.i./ha): 50%
- Activity [%] against Papaver rhoeas ([3]; Table 5-41, greenhouse, 3 g of a.i./ha): 30%

Compound: COc1c(C(=O)Nc2nnnn2C)ccc(C(F)(F)F)c1SC [A1-44]
- Activity [%] against Centaurea cyanis ([5]; Table 5-50, greenhouse, 8 g of a.i./ha): 50%
- Activity [%] against Avena fatua ([2]; Table 5-49, greenhouse, 4 g of a.i./ha): 0%
- Activity [%] against Euphorbia heterophylla [6]: 58%

Compound: Cn1nnnc1NC(=O)c1ccc(S(C)(=O)=O)c(COCC(F)(F)F)c1Cl [A1-61]
- Activity [%] against Brachiaria platyphylla ([7]; Table 5-64, greenhouse, alone, 6 g of a.i./ha): 0%
- Activity [%] against Setaria viridis ([8]; Table 5-65, greenhouse, 3 g of a.i./ha): 0%
- Activity [%] against Veronica hederifolia ([9]; Table 5-66, field): 68%

Compound: COCCOCc1c(S(C)(=O)=O)ccc(C(=O)Nc2nnnn2C)c1Cl [A1-63]
- Activity [%] against Bidens pilosa ([10]; Table 5-71, greenhouse, alone, 8 g of a.i./ha): 50%
- Activity [%] against Echinochloa crus-galli ([11]; Table 5-69, greenhouse, alone, 8 g of a.i./ha): 85%
- Activity [%] against Brachiaria platyphylla ([7]; Table 5-67, greenhouse, alone, 8 g of a.i./ha): 10%
- Activity [%] against Xanthium strumarium ([12]; Table 5-73, greenhouse, 8 g of a.i./ha): 80%
- Activity [%] against Setaria viridis ([8]; Table 5-70, greenhouse, 4 g of a.i./ha): 50%
- Activity [%] against Pharbitis purpurea ([13]; Table 5-72, greenhouse, 4 g of a.i./ha): 35%
- Activity [%] against Digitaria sanguinalis ([14]; Table 5-68, greenhouse, alone, 8 g of a.i./ha): 45%
- Activity [%] against Veronica hederifolia ([9]; Table 5-74, field): 68%

Compound: CCS(=O)(=O)c1ccc(C(=O)Nc2nnnn2C)c(Cl)c1C1=NOC(COC)C1 (centres unmarked) [A1-66]
- Activity [%] against Ambrosia artemisiifolia ([15]; Table 5-75, greenhouse, 6 g of a.i./ha): 35%
- Activity [%] against Veronica hederifolia ([9]; Table 5-76, field): 75%

Compound: COc1c(C(=O)Nc2nnnn2C)ccc(C(F)F)c1SC [A1-81]
- Activity [%] against Echinochloa crus-galli ([11]; Table 5-95, greenhouse, alone, 1 g of a.i./ha): 10%
- Activity [%] against Brachiaria platyphylla ([7]; Table 5-94, greenhouse, alone, 1 g of a.i./ha): 10%

Compound: Cn1ncnc1NC(=O)c1ccc(C(F)(F)F)c(S(C)(=O)=O)c1Cl [A2-9]
- Activity [%] against Echinochloa crus-galli ([11]; Greenhouse, dosage 1 g of a.i./ha, Table 5-108): 0%
- Activity [%] against Brachiaria platyphylla ([7]; Greenhouse, dosage 1 g of a.i./ha, Table 5-105): 0%
- Activity [%] against Digitaria sanguinalis ([14]; Greenhouse, dosage 2 g of a.i./ha): 65%

Compound: COc1c(Cl)ccc(Cl)c1C(=O)O [dicamba]
- Activity [%] against Echinochloa crus-galli ([11]; Greenhouse, dosage 12.5 g of a.i./ha, Table 5-108): 0%
- Activity [%] against Echinochloa crus-galli ([11]; Greenhouse, dosage 12.5 g of a.i./ha, Table 5-115): 0%
- Activity [%] against Echinochloa crus-galli ([11]; Table 5-95, greenhouse, alone, 12.5 g of a.i./ha): 0%
- Activity [%] against Brachiaria platyphylla ([7]; Greenhouse, dosage 12.5 g of a.i./ha, Table 5-105): 0%
- Activity [%] against Brachiaria platyphylla ([7]; Table 5-64, greenhouse, alone, 25 g of a.i./ha): 10%
- Activity [%] against Brachiaria platyphylla ([7]; Table 5-94, greenhouse, alone, 12.5 g of a.i./ha): 0%
- Activity [%] against Setaria viridis ([8]; Table 5-65, greenhouse, 25 g of a.i./ha): 0%
- Activity [%] against Digitaria sanguinalis ([14]; Greenhouse, dosage 12.5 g of a.i./ha): 0%

Compound: CP(=O)(O)CCC(N)C(=O)O (centres unmarked) [glufosinate-ammonium]
- Activity [%] against Sida spinosa ([16]; Table 5-10, field, 125 g of a.i./ha): 50%

Compound: O=C(O)CNCP(=O)([O-])O.[K+] [glyphosate-potassium]
- Activity [%] against Sida spinosa ([16]; Table 5-11, field, 200 g of a.i./ha): 30%

Compound: O=C(O)CNCP(=O)(O)O [glyphosate]
- Activity [%] against Cassia obtusifolia ([17]; Table 5-12, field, 200 g of a.i./ha): 65%

Compound: Cc1ccc2c(c1)[C@H](Nc1nc(N)nc(C(C)F)n1)[C@@H](C)C2 (some centres unmarked) [indaziflam]
- Activity [%] against Cassia obtusifolia ([17]; Table 5-24, field, 25 g of a.i./ha): 65%

Compound: O=c1[nH]c2c(c(=O)n1C1CCCCC1)CCC2 [lenacil]
- Activity [%] against Bidens pilosa ([10]; Greenhouse, dosage 4 g of a.i./ha): 0%
- Activity [%] against Bidens pilosa ([10]; Table 5-28, greenhouse, alone, 4 g of a.i./ha): 0%
- Activity [%] against Bidens pilosa ([10]; Table 5-33, greenhouse, alone, 4 g of a.i./ha): 0%
- Activity [%] against Bidens pilosa ([10]; Table 5-71, greenhouse, alone, 400 g of a.i./ha): 0%
- Activity [%] against Ambrosia artemisiifolia ([15]; Table 5-29, greenhouse, 16 g of a.i./ha): 0%
- Activity [%] against Ambrosia artemisiifolia ([15]; Table 5-32, greenhouse, 4 g of a.i./ha): 0%
- Activity [%] against Echinochloa crus-galli ([11]; Table 5-69, greenhouse, alone, 400 g of a.i./ha): 0%
- Activity [%] against Brachiaria platyphylla ([7]; Greenhouse, dosage 4 g of a.i./ha, Table 5-109): 0%
- Activity [%] against Brachiaria platyphylla ([7]; Greenhouse, dosage 4 g of a.i./ha, Table 5-110): 0%
- Activity [%] against Brachiaria platyphylla ([7]; Table 5-55, greenhouse, alone, 4 g of a.i./ha): 0%
- Activity [%] against Brachiaria platyphylla ([7]; Table 5-57, greenhouse, alone, 4 g of a.i./ha): 0%
- Activity [%] against Brachiaria platyphylla ([7]; Table 5-67, greenhouse, alone, 800 g of a.i./ha): 0%
- Activity [%] against Xanthium strumarium ([12]; Table 5-56, greenhouse, 4 g of a.i./ha): 0%
- Activity [%] against Xanthium strumarium ([12]; Table 5-73, greenhouse, 400 g of a.i./ha): 0%
- Activity [%] against Setaria viridis ([8]; Table 5-27, greenhouse, 8 g of a.i./ha): 0%
- Activity [%] against Setaria viridis ([8]; Table 5-31, greenhouse, 8 g of a.i./ha): 0%
- Activity [%] against Setaria viridis ([8]; Table 5-70, greenhouse, 100 g of a.i./ha): 0%
- Activity [%] against Pharbitis purpurea ([13]; Table 5-30, greenhouse, 4 g of a.i./ha): 0%
- Activity [%] against Pharbitis purpurea ([13]; Table 5-34, greenhouse, 4 g of a.i./ha): 0%
- Activity [%] against Pharbitis purpurea ([13]; Table 5-72, greenhouse, 100 g of a.i./ha): 0%
- Activity [%] against Digitaria sanguinalis ([14]; Table 5-35, greenhouse, alone, 4 g of a.i./ha): 0%
- Activity [%] against Digitaria sanguinalis ([14]; Table 5-68, greenhouse, alone, 400 g of a.i./ha): 0%

Compound: CSc1nnc(C(C)(C)C)c(=O)n1N [metribuzin]
- Activity [%] against Sida spinosa ([16]; Table 5-21, field, 50 g of a.i./ha): 25%
- Activity [%] against Portulaca oleracea [18]: 0%

Compound: Cc1c(C(=O)c2cnn(C)c2O)ccc(S(C)(=O)=O)c1C1=NOCC1 [topramezone]
- Activity [%] against Setaria viridis [19]: 30%

Reference: US9867376B2, “Herbicidal compositions comprising N-tetrazol-5-yl)- or N-(triazol-5-yl)arylcarboxamides” (priority 2012, dated 2018)
